The results in this text go back to patent publication US12077555B2, “STAT degraders and uses thereof” (Kymera Therapeutics, Inc., priority 2019, dated 2024).

Where only a bound is given, the exact number is not on record here.

For one test, the target named is STAT3 (Homo sapiens, UniProt P40763). As to the kind of experiment: STAT3 HiBiT degradation assay in transfected A549 cells. Type of test: cell-based. More on the design: expressed in transfected cells; host or cells: A549. Conditions: A549, 24 h; read-out: STAT3 HiBiT A549 degradation 24 h: Average external-Abs DC50. In short, it runs like this: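 Degradation read as HiBiT-tagged STAT3 luminescence (Nano-Glo lytic reagent, 10 min, room temperature) following 24 h compound treatment of transfected A549 cells at 3-fold, 10 points. Percent remaining signal computed against controls and fitted with a four-parameter logistic; DC50 reported as letter bins (A <0.01 to D >1.0 µM).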
STAT3, sequence (P40763 whole entry): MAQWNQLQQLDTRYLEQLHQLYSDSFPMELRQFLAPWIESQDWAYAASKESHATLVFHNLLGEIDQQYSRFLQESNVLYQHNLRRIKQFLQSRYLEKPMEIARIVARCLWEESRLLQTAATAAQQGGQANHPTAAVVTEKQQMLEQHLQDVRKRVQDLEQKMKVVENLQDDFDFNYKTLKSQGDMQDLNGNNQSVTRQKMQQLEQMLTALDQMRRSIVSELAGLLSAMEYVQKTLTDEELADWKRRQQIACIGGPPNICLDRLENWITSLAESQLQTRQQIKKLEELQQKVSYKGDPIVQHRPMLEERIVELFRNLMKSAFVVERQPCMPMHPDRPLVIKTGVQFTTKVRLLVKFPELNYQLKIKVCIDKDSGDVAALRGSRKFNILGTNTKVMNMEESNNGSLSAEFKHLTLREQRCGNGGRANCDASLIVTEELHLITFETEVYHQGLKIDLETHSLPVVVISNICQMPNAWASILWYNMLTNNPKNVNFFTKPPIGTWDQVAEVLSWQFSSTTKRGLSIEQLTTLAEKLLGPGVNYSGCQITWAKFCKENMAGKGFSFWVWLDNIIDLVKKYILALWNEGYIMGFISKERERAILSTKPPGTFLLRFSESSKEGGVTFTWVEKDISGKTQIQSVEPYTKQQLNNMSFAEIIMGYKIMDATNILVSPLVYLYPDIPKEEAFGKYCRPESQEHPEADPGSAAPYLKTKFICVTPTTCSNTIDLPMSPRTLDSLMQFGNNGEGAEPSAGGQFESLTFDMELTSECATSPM
What is called DC50 is the concentration giving 50% degradation. Take `Cc1ncsc1-c1ccc(C2(NC(=O)[C@@H]3C[C@@H](O)CN3C(=O)[C@@H](NC(=O)CCCc3cccc(OC[C@H](CCC(N)=O)NC(=O)[C@@H]4Cc5cccc6c5N4C(=O)[C@@H](NC(=O)c4cc5cc(C(=O)P(=O)(O)O)ccc5[nH]4)CC6)c3Cl)C(C)(C)C)CC2)cc1` [Compound I-283]: the 50% degradation concentration (DC50) was 10 to 100 nM.
Same read-out and setting: the same measure for `Cn1c(=O)n(C2CCC(=O)NC2=O)c2ccc(CCCCOc3ccc4c5c3CC[C@H](NC(=O)c3cc6cc(C(=O)P(=O)(O)O)ccc6[nH]3)C(=O)N5[C@H](C(=O)N[C@@H](CCC(N)=O)C(=O)NC(c3ccccc3)c3ccccc3)C4)cc21` (stereo partly drawn) [Compound I-270, 2-[[(2S,11S)-2-[[(1S)-3-carbamoyl-1-(diphenylmethylcarbamoyl)propyl]carbamoyl]-7-[4-[1-(2,6-dioxopiperidin-3-yl)-3-methyl-2-oxo-1,3-benzodiazol-5-yl]butoxy]-12-oxo-1-azatricyclo[6.4.1.0^[4,13]]trideca-4(13),5,7-trien-11-yl]carbamoyl]-1H-indole-5-carbonylphosphonic acid]: 100 to 1000 nM; for `Cc1ncsc1-c1ccc(CNC(=O)[C@@H]2C[C@@H](O)CN2C(=O)C(NC(=O)CCCCc2ccc(CNC(=O)[C@H](CCC(N)=O)NC(=O)[C@@H]3Cc4cccc5c4N3C(=O)[C@@H](NC(=O)c3cc4cc(C(=O)P(=O)(O)O)ccc4[nH]3)CC5)cc2)C(C)(C)C)cc1` (some centres unmarked) [Compound I-139]: greater than 1000 nM; for `Cc1ncsc1-c1ccc([C@H](C)NC(=O)[C@@H]2C[C@@H](O)CN2C(=O)[C@@H](NC(=O)CCCCc2cccc(OC[C@H](CCC(N)=O)NC(=O)[C@@H]3CCCN3C(=O)[C@H](CC(C)C)NC(=O)c3cc4cc(C(=O)P(=O)(O)O)ccc4[nH]3)c2Cl)C(C)(C)C)cc1` [Compound I-239, diammonium 2-[[(2S)-1-[(2S)-2-[[(2S)-4-carbamoyl-1-[2-chloro-3-(4-[[(2S)-1-[(2S,4R)-4-hydroxy-2-[[(1S)-1-[4-(4-methyl-1,3-thiazol-5-yl)phenyl]ethyl]carbamoyl]pyrrolidin-1-yl]-3,3-dimethyl-1-oxobutan-2-yl]carbamoyl]butyl)phenoxy]butan-2-yl]carbamoyl]pyrrolidin-1-yl]-4-methyl-1-oxopentan-2-yl]carbamoyl]-1H-]: less than 10 nM.
As to `CC(=O)O[C@@H]1C[C@@H](C(=O)N[C@@H](C)c2ccc(-c3scnc3C)cc2)N(C(=O)[C@@H](NC(=O)CCCCCc2cccc(OC[C@H](CCC(N)=O)NC(=O)[C@@H]3Cc4cccc5c4N3C(=O)[C@@H](NC(=O)c3cc4cc(C(=O)P(=O)(O)O)ccc4[nH]3)CC5)c2F)C(C)(C)C)C1` [Compound I-272], the 50% degradation concentration (DC50) was less than 10 nM.
In the case of `Cc1ncsc1-c1ccc(CNC(=O)[C@@H]2C[C@@H](O)CC2C(=O)[C@@H](NC(=O)CCc2ccc(CCCOC[C@H](CCC(N)=O)NC(=O)[C@@H]3Cc4cccc5c4N3C(=O)[C@@H](NC(=O)c3cc4cc(C(=O)P(=O)(O)O)ccc4[nH]3)CC5)cc2)C(C)(C)C)cc1` (stereo partly drawn) [Compound I-170, diammonium 2-[[(2S,11S)-2-[[(2S)-4-carbamoyl-1-[3-[4-(2-[[(2S)-1-[(2S,4R)-4-hydroxy-2-([[4-(4-methyl-1,3-thiazo1-5-yl)phenyl]methyl]carbamoyl)pyrrolidin-1-yl]-3,3-dimethyl-1-oxobutan-2-yl]carbamoyl]ethyl)phenyl]propoxy]butan-2-yl]carbamoyl]-12-oxo-1-azatricyclo[6.4.1.0^[4,13]]trideca-4(13),5,7-trien-11-yl]carbamoyl]-1H-indole-5-carbonylphosphonate], the DC50 is greater than 1000 nM.
On to `Cc1ncsc1-c1ccc(CNC(=O)[C@@H]2C[C@H](O)CN2C(=O)[C@@H](NC(=O)CCCCc2ccc(CO[C@H](C)[C@H](CCC(N)=O)NC(=O)[C@@H]3Cc4cccc5c4N3C(=O)[C@@H](NC(=O)c3cc4cc(C(=O)P(=O)(O)O)ccc4[nH]3)CC5)cc2)C(C)(C)C)cc1` [Compound I-121, diammonium 2-[[(2S,11S)-2-[[(3S,4R)-1-carbamoyl-4-[[4-(4-[[(2S)-1-[(2S,4S)-4-hydroxy-2-([[4-(4-methyl-1,3-thiazol-5-yl)phenyl]methyl]carbamoyl)pyrrolidin-1-yl]-3,3-dimethyl-1-oxobutan-2-yl]carbamoyl]butyl)phenyl]methoxy]pentan-3-yl]carbamoyl]-12-oxo-1-azatricyclo[6.4.1.0^[4,13]]trideca-4(13),5,7-trien-11-yl]carbamoyl]-1H-indole-5-carbonylphosphonate], for which the half-maximal degradation concentration (DC50) is greater than 1000 nM.
For the compound `Cn1c(=O)n(C2CCC(=O)NC2=O)c2ccc(CC[C@H]3CC[C@@H](C(=O)N4CC[C@H]5CC[C@@H](C(=O)N[C@@H](CCC(N)=O)C(=O)NCc6ccc(S(C)(=O)=O)cc6)N5C(=O)[C@@H](NC(=O)c5cc6cc(C(=O)P(=O)(O)O)ccc6[nH]5)C4)CC3)cc21` (stereo partly drawn) [Compound I-294, (2-(((5S,8S,10aR)-8-(((S)-5-amino-1-((4-(methylsulfonyl)benzyl)amino)-1,5-dioxopentan-2-yl)carbamoyl)-3-((1r,4R)-4-(2-(1-(2,6-dioxopiperidin-3-yl)-3-methyl-2-oxo-2,3-dihydro-1H-benzo[d]imidazol-5-yl)ethyl)cyclohexane-1-carbonyl)-6-oxodecahydropyrrolo[1,2-a][1,5]diazocin-5-yl)carbamoyl)-1H-indole-5-carbonyl)phosphonic acid], the 50% degradation concentration (DC50) was less than 10 nM.
For the compound `Cc1ncsc1-c1ccc(CNC(=O)[C@@H]2C[C@@H](O)CN2C(=O)[C@@H](NC(=O)CCCCc2ccc(CN(C)C[C@H](CCC(N)=O)NC(=O)[C@@H]3Cc4cccc5c4N3C(=O)[C@@H](NC(=O)c3cc4cc(C(=O)P(=O)(O)O)ccc4[nH]3)CC5)cc2)C(C)(C)C)cc1` [Compound I-179, 2-[[(2S,11S)-2-[[(2S)-4-carbamoyl-1-([[4-(4-[[(2S)-1-[(2S,4R)-4-hydroxy-2-([[4-(4-methyl-1,3-thiazol-5-yl)phenyl]methyl]carbamoyl)pyrrolidin-1-yl]-3,3-dimethyl-1-oxobutan-2-yl]carbamoyl]butyl)phenyl]methyl](methyl)amino)butan-2-yl]carbamoyl]-12-oxo-1-azatricyclo[6.4.1.0^[4,13]]trideca-4(13),5,7-trien-11-yl]carbamoyl]-1H-indole-5-carbonylphosphonic acid], the DC50 was 100 to 1000 nM.
Still for that read-out and setting: the same measure for `Cc1cc(CO[C@H](C)[C@H](CCC(N)=O)NC(=O)[C@@H]2Cc3cccc4c3N2C(=O)[C@@H](NC(=O)c2cc3cc(C(=O)P(=O)(O)O)ccc3[nH]2)CC4)ccc1CCCCC(=O)N[C@H](C(=O)N1C[C@H](O)C[C@H]1C(=O)N[C@@H](C)c1ccc(-c2scnc2C)cc1)C(C)(C)C` [Compound I-218, diammonium 2-[[(2S,11S)-2-[[(3S,4R)-1-carbamoyl-4-[[4-(4-[[(2S)-1-[(2S,4R)-4-hydroxy-2-[[(1S)-1-[4-(4-methyl-1,3-thiazol-5-yl)phenyl]ethyl]carbamoyl]pyrrolidin-1-yl]-3,3-dimethyl-1-oxobutan-2-yl]carbamoyl]butyl)-3-methylphenyl]methoxy]pentan-3-yl]carbamoyl]-12-oxo-1-azatricyclo[6.4.1.0^[4,13]]trideca-4(13),5,7-trien-11-yl]carbamoyl]-1H-indole-5-carbonylphosphonate]: less than 10 nM; for `Cc1cc(CCCCCC(=O)N[C@H](C(=O)N2C[C@H](O)C[C@H]2C(=O)N[C@@H](C)c2ccc(-c3scnc3C)cc2)C(C)(C)C)cc(NC(=O)[C@H](CCC(N)=O)NC(=O)[C@@H]2Cc3cccc4c3N2C(=O)[C@@H](NC(=O)c2cc3cc(C(=O)P(=O)(O)O)ccc3[nH]2)CC4)c1` [Compound I-258, 2-[[(2S,11S)-2-[[(1S)-3-carbamoyl-1-[[3-(5-[[(2S)-1-[(2S,4R)-4-hydroxy-2-[[(1S)-1-[4-(4-methyl-1,3-thiazol-5-yl)phenyl]ethyl]carbamoyl]pyrrolidin-1-yl]-3,3-dimethyl-1-oxobutan-2-yl]carbamoyl]pentyl)-5-methylphenyl]carbamoyl]propyl]carbamoyl]-12-oxo-1-azatricyclo[6.4.1.0^[4,13]]trideca-4(13),5,7-trien-11-yl]carbamoyl]-1H-indole-5-carbonylphosphonic acid]: less than 10 nM.
`Cc1ncsc1-c1ccc([C@H](C)NC(=O)[C@@H]2C[C@@H](O)CN2C(=O)[C@@H](NC(=O)CCCCCc2cc(F)cc(OC[C@H](CCC(N)=O)NC(=O)[C@@H]3Cc4cccc5c4N3C(=O)[C@@H](NC(=O)c3cc4cc(C(=O)P(=O)(O)O)ccc4[nH]3)CC5)c2F)C(C)(C)C)cc1` [Compound I-267]: the DC50 is less than 10 nM.
In the case of `Cn1c(=O)n(C2CCC(=O)NC2=O)c2ccc(C3CCN(CCC(=O)N4CC[C@H]5CC[C@@H](C(=O)N[C@@H](CCC(N)=O)C(=O)NC(c6ccccc6)c6ccccc6)N5C(=O)[C@@H](NC(=O)c5cc6cc(C(=O)P(=O)(O)O)ccc6[nH]5)C4)CC3)cc21` (stereo partly drawn) [Compound I-177, 2-[[(5S,8S,10aR)-8-[[(1S)-3-carbamoyl-1-(diphenylmethylcarbamoyl)propyl]carbamoyl]-3-(3-[4-[1-(2,6-dioxopiperidin-3-yl)-3-methyl-2-oxo-1,3-benzodiazol-5-yl]piperidin-1-yl]propanoyl)-6-oxo-octahydropyrrolo[1,2-a][1,5]diazocin-5-yl]carbamoyl]-1H-indole-5-carbonylphosphonic acid], the half-maximal degradation concentration (DC50) was in the range of 100 to 1000 nM.

Staying with this test, now noted: read-out: STAT3 HiBiT A549 degradation 24 h: Average external-Abs DC50; A549, 24 h.
Turning to `Cn1c(=O)n(C2CCC(=O)NC2=O)c2ccc(CCc3ccccc3CCC(=O)N3CC[C@H]4CC[C@@H](C(=O)N[C@@H](CCC(N)=O)C(=O)NC(c5ccccc5)c5ccccc5)N4C(=O)[C@@H](NC(=O)c4cc5cc(C(=O)P(=O)(O)O)ccc5[nH]4)C3)cc21` (stereo partly drawn) [Compound I-156, diammonium 2-[[(5S,8S,10aR)-8-[[(1S)-3-carbamoyl-1-(diphenylmethylcarbamoyl)propyl]carbamoyl]-3-[3-(2-[2-[1-(2,6-dioxopiperidin-3-yl)-3-methyl-2-oxo-1,3-benzodiazol-5-yl]ethyl]phenyl)propanoyl]-6-oxo-octahydropyrrolo[1,2-a][1,5]diazocin-5-yl]carbamoyl]-1H-indole-5-carbonylphosphonate], the DC50 lay within 100 to 1000 nM.
